Experimental data from patent publication US9708368B2, “Linear peptide antibiotics” (priority 2012, dated 2017).
≈ marks a conversion by molar mass, not a printed value. Numbered stars: 1 amine (or outer) side, 2 acyl side, 3 side chain; on linkers, the order of the positions; unused ones are H or OH. Square brackets hold non-standard residues; d marks the D form. Peptide text beside a SMILES is read from it. * marks the point of attachment. ξ: configuration not given here. boroAla((+)-pinanediol) = C[C@H](N*)B1O[C@@H]2C[C@@H]3C[C@@H](C3(C)C)[C@]2(C)O1; Biphenylcarbonyl(4'-Bu) = CCCCc1ccc(-c2ccc(C(=O)*)cc2)cc1; X1 = C[C@H](N*)B1OC2C[C@@H]3C[C@@H](C3(C)C)[C@]2(C)O1; Benzoyl(4-(4-Cl-Ph)) = O=C(c1ccc(-c2ccc(Cl)cc2)cc1)*; ξPro(4S-NH2) = O=C(C1C[C@H](N[*:3])CN1[*:1])[*:2]; ξ3Amino2oxobutanoyl = CC(N[*:1])C(=O)C(=O)[*:2]; Benzoyl(4-hexyl) = CCCCCCc1ccc(C(=O)*)cc1; NMeThr(3ξ) = CN[C@H](C(=O)O)C(C)O; X9 = COC(=O)CN1C[C@@H](N*)C1=O; Tle = CC(C)(C)[C@H](N)C(=O)O; Lauroyl = CCCCCCCCCCCC(=O)*; boroAla = C[C@H](N*)B(O)O; Orn = NCCC[C@H](N)C(=O)O; Dab = NCC[C@H](N)C(=O)O; Ac3c = NC1(C(=O)O)CC1; boroGly = OB(O)CN*; βAla = NCCC(=O)O

Assays:
S. aureus SPase = S. aureus SPase (Staphylococcus aureus, UniProt P0A070); test: biochemical
E. coli SPase = E. coli SPase (Escherichia coli, UniProt P00803); test: Biochemical SPase activity assay (fluorogenic peptide substrate), E. coli enzyme
[1] = system: methicillin resistant Staphylococcus aureus (MRSA) strain USA300 (NRS384); settings: Method B, 35° C., 22 hours
[2] = system: Escherichia coli strain MC4100 IMP-4213, which harbors an LptD mutation; settings: Method B; E. coli MC4100 IMP-4213 (LptD mutation); 35° C., 22 hours
Procedure: In vitro antimicrobial activity of each compound was determined by measuring minimal inhibitor concentrations (MICs) using the broth micro-dilution technique as approved by the Clinical and Laboratory Standards Institute (CLSI). […] Bacterial inocula were prepared by scraping cells into 1 mL of testing media (cation adjusted Mueller Hinton Broth supplemented with 0.002% v/v Tween-80) and diluting to a final OD600 nm of 0.01.
Test compounds were prepared in DMSO at a concentration of 10 mg/ml. […] Bacterial inocula were added to the two fold serial dilutions of test compounds to a final density of OD OD600 nm of 0.0005 and incubated stationarily at 35° C. for 22 hours, after which the plates were examined visually.

Structure (SMILES) | IC50 (S. aureus SPase) | IC50 (E. coli SPase) | MIC (μg/mL) S. aureus [1] | MIC (μg/mL) E. coli [2]
CCCCCCc1ccc(C(=O)N[C@H](CO)C(=O)N[C@H](C)C(=O)NCC(=O)N(C)[C@H](C(=O)N[C@@H](C)C(=O)N[C@@H](CC(N)=O)C(=O)NC(C)C(=O)C(=O)NC)C(C)O)cc1 (stereo partly shown) [Compound 113] ({Benzoyl(4-hexyl)}-[dS][dA]G[NMeThr(3ξ)]AN[ξ3Amino2oxobutanoyl]-NHMe) | 470 nM |  |  | 
CCCCCCc1ccc(C(=O)N[C@H](CO)C(=O)N[C@H](C)C(=O)NCC(=O)N(C)[C@H](C(=O)N[C@@H](C)C(=O)N[C@@H](CC(C)C)C(=O)NC(C)C(=O)C(=O)NC)C(C)O)cc1 (stereo partly shown) [Compound 114] ({Benzoyl(4-hexyl)}-[dS][dA]G[NMeThr(3ξ)]AL[ξ3Amino2oxobutanoyl]-NHMe) | 390 nM |  |  | 
CCCCCCc1ccc(C(=O)N[C@H](CO)C(=O)N[C@H](C)C(=O)NCC(=O)N(C)[C@H](C(=O)N[C@@H](C)C(=O)N[C@@H](CC(C)C)C(=O)NCB(O)O)C(C)O)cc1 (stereo partly shown) [Compound 125] ({Benzoyl(4-hexyl)}-[dS][dA]G[NMeThr(3ξ)]AL-boroGly) | 55 nM | 730 nM |  | 
CCCCc1ccc(-c2ccc(C(=O)N[C@@H](CCCCN)C(=O)N[C@H](C(=O)N[C@@H](C)C(=O)N[C@@H](CC(N)=O)C(=O)N[C@@H](C)B3O[C@@H]4C[C@@H]5C[C@@H](C5(C)C)[C@]4(C)O3)[C@@H](C)O)cc2)cc1 [Compound 129] ({Biphenylcarbonyl(4'-Bu)}-KTAN-{boroAla((+)-pinanediol)}) | 140 nM | 14 nM | 0.74 µg/mL (≈ 0.847 µM) | 0.91 µg/mL (≈ 1.04 µM)
CCCCc1ccc(-c2ccc(C(=O)N[C@@H](CCCCN)C(=O)N[C@H](C(=O)N[C@@H](C)C(=O)N[C@@H](CC(N)=O)C(=O)N[C@@H](C)B(O)O)[C@@H](C)O)cc2)cc1 [Compound 131] ({Biphenylcarbonyl(4'-Bu)}-KTAN-boroAla) | 98 nM | 19 nM | 0.45 µg/mL (≈ 0.608 µM) | 0.44 µg/mL (≈ 0.595 µM)
CCCCc1ccc(-c2ccc(C(=O)N[C@@H](CCCCN)C(=O)N[C@H](C(=O)N[C@@H](C)C(=O)N[C@@H](CCCCN)C(=O)N[C@@H](C)B3OC4C[C@@H]5C[C@@H](C5(C)C)[C@]4(C)O3)[C@@H](C)O)cc2)cc1 (stereo partly shown) [Compound 132] ({Biphenylcarbonyl(4'-Bu)}-KTAK-X1) | 77 nM | 24 nM | 0.21 µg/mL (≈ 0.236 µM) | 1 µg/mL (≈ 1.13 µM)
CCCCc1ccc(-c2ccc(C(=O)N[C@@H](CCCCN)C(=O)N3CCC[C@H]3C(=O)N[C@@H](C)C(=O)N[C@@H](CC(N)=O)C(=O)N[C@@H](C)B3O[C@@H]4C[C@@H]5C[C@@H](C5(C)C)[C@]4(C)O3)cc2)cc1 [Compound 133] ({Biphenylcarbonyl(4'-Bu)}-KPAN-{boroAla((+)-pinanediol)}) | 170 nM | 15 nM | 1.4 µg/mL (≈ 1.61 µM) | 0.79 µg/mL (≈ 0.908 µM)
CCCCc1ccc(-c2ccc(C(=O)N[C@@H](CCCCN)C(=O)N[C@@H](CCCCN)C(=O)N[C@@H](C)C(=O)N[C@@H](CC(N)=O)C(=O)N[C@@H](C)B3O[C@@H]4C[C@@H]5C[C@@H](C5(C)C)[C@]4(C)O3)cc2)cc1 [Compound 134] ({Biphenylcarbonyl(4'-Bu)}-KKAN-{boroAla((+)-pinanediol)}) | 120 nM | 8.7 nM | 0.87 µg/mL (≈ 0.966 µM) | 1.4 µg/mL (≈ 1.55 µM)
CCCCc1ccc(-c2ccc(C(=O)N[C@@H](CCCCN)C(=O)N[C@@H](Cc3c[nH]cn3)C(=O)N[C@@H](C)C(=O)N[C@@H](CC(N)=O)C(=O)N[C@@H](C)B(O)O)cc2)cc1 [Compound 136] ({Biphenylcarbonyl(4'-Bu)}-KHAN-boroAla) | 39 nM | 14 nM | 1.4 µg/mL (≈ 1.8 µM) | 1 µg/mL (≈ 1.29 µM)
CCCCc1ccc(-c2ccc(C(=O)N[C@@H](CCCCN)C(=O)NC3(C(=O)N[C@@H](C)C(=O)N[C@@H](CCCCN)C(=O)N[C@@H](C)B4OC5C[C@@H]6C[C@@H](C6(C)C)[C@]5(C)O4)CC3)cc2)cc1 (stereo partly shown) [Compound 137] ({Biphenylcarbonyl(4'-Bu)}-K[Ac3c]AK-X1) | 26000 nM | 1200 nM | 16 µg/mL (≈ 18.4 µM) | 23 µg/mL (≈ 26.4 µM)
CCCCc1ccc(-c2ccc(C(=O)N[C@@H](Cc3c[nH]c4ccccc34)C(=O)N[C@H](C(=O)N[C@@H](C)C(=O)N[C@@H](CCCCN)C(=O)N[C@@H](C)B3OC4C[C@@H]5C[C@@H](C5(C)C)[C@]4(C)O3)[C@@H](C)O)cc2)cc1 (stereo partly shown) [Compound 138] ({Biphenylcarbonyl(4'-Bu)}-WTAK-X1) | 1100 nM | 1000 nM | 5 µg/mL (≈ 5.29 µM) | >64 µg/mL
CCCCc1ccc(-c2ccc(C(=O)N3C[C@@H](N)CC3C(=O)N[C@H](C(=O)N[C@@H](C)C(=O)N[C@@H](CC(N)=O)C(=O)N[C@@H](C)B3OC4C[C@@H]5C[C@@H](C5(C)C)[C@]4(C)O3)[C@@H](C)O)cc2)cc1 (stereo partly drawn) [Compound 139] ({Biphenylcarbonyl(4'-Bu)}-[ξPro(4S-NH2)]TAN-X1) | 8.5 nM | 3.4 nM | 1 µg/mL (≈ 1.17 µM) | 2 µg/mL (≈ 2.33 µM)
CCCCc1ccc(-c2ccc(C(=O)N[C@@H](CCCCN)C(=O)N[C@H](C(=O)N[C@@H](C)C(=O)N[C@@H](CCN)C(=O)N[C@@H](C)B3O[C@@H]4C[C@@H]5C[C@@H](C5(C)C)[C@]4(C)O3)[C@@H](C)O)cc2)cc1 [Compound 140] ({Biphenylcarbonyl(4'-Bu)}-KTA[Dab]-{boroAla((+)-pinanediol)}) | 52 nM | 50 nM | 1 µg/mL (≈ 1.16 µM) | 8 µg/mL (≈ 9.3 µM)
CCCCCCCCCCCC(=O)N[C@@H](CCCCN)C(=O)N[C@H](C(=O)N[C@@H](C)C(=O)N[C@@H](CCCCN)C(=O)N[C@@H](C)B1OC2C[C@@H]3C[C@@H](C3(C)C)[C@]2(C)O1)[C@@H](C)O (stereo partly shown) [Compound 141] (Lauroyl-KTAK-X1) | 23 nM | 33 nM | 0.79 µg/mL (≈ 0.947 µM) | 5.7 µg/mL (≈ 6.83 µM)
CCCCc1ccc(-c2ccc(C(=O)N[C@@H](CCCN)C(=O)N[C@H](C(=O)N[C@@H](C)C(=O)N[C@@H](CCCCN)C(=O)N[C@@H](C)B3OC4C[C@@H]5C[C@@H](C5(C)C)[C@]4(C)O3)[C@@H](C)O)cc2)cc1 (stereo partly shown) [Compound 142] ({Biphenylcarbonyl(4'-Bu)}-[Orn]TAK-X1) | 34 nM | 15 nM | 0.22 µg/mL (≈ 0.252 µM) | 0.5 µg/mL (≈ 0.572 µM)
CCCCc1ccc(-c2ccc(C(=O)N[C@@H](Cc3c[nH]cn3)C(=O)N[C@H](C(=O)N[C@@H](C)C(=O)N[C@@H](CCCCN)C(=O)N[C@@H](C)B3OC4C[C@@H]5C[C@@H](C5(C)C)[C@]4(C)O3)[C@@H](C)O)cc2)cc1 (stereo partly shown) [Compound 143] ({Biphenylcarbonyl(4'-Bu)}-HTAK-X1) | 180 nM | 250 nM | 0.35 µg/mL (≈ 0.39 µM) | 5.7 µg/mL (≈ 6.35 µM)
CC(C)C[C@H](NC(=O)[C@H](C)NC(=O)[C@H](CCCCN)NC(=O)[C@H](CCCCN)NC(=O)c1ccc(-c2ccc(Cl)cc2)cc1)C(=O)N[C@@H](C)B(O)O [Compound 155] ({Benzoyl(4-(4-Cl-Ph))}-KKAL-boroAla) | 250 nM | 39 nM |  | 
CCCCc1ccc(-c2ccc(C(=O)NCCC(=O)N[C@@H](CCCCN)C(=O)N[C@H](C(=O)N[C@@H](C)C(=O)N[C@H](C(=O)N[C@@H](C)B3OC4C[C@@H]5C[C@@H](C5(C)C)[C@]4(C)O3)C(C)(C)C)[C@@H](C)O)cc2)cc1 (stereo partly shown) [Compound 211] ({Biphenylcarbonyl(4'-Bu)-βAla}-KTA[Tle]-X1) | 36 nM |  | 0.71 µg/mL (≈ 0.752 µM) | 32 µg/mL (≈ 33.9 µM)
CCCCc1ccc(-c2ccc(C(=O)N[C@@H](CCCCN)C(=O)N3CCC[C@H]3C(=O)N[C@@H](C)C(=O)N[C@@H](CCCCN)C(=O)N[C@@H]3CN(CC(=O)OC)C3=O)cc2)cc1 [Compound 258] ({Biphenylcarbonyl(4'-Bu)}-KPAK-X9) | 50000 nM |  | >64 µg/mL | 23 µg/mL (≈ 28.1 µM)
CCCCc1ccc(-c2ccc(CN[C@@H](CCN)C(=O)N[C@H](C(=O)N[C@@H](C)C(=O)N[C@@H](CCCCN)C(=O)N[C@@H](C)B(O)O)[C@@H](C)O)cc2)cc1 [Compound 267] | 33 nM | 11 nM |  | 
CCCCc1ccc(-c2ccc(C(=O)N[C@@H](CCN)C(=O)N[C@H](C(=O)N[C@@H](C)C(=O)N[C@@H](CCCCN)C(=O)N[C@@H](C)B(O)O)[C@@H](C)O)cc2)cc1 [Compound 267] ({Biphenylcarbonyl(4'-Bu)}-[Dab]TAK-boroAla) |  |  | 0.13 µg/mL (≈ 0.179 µM) | 
